Marks after values point to notes of the source that are not given here.
System: grossesse apparemment normale et une aménorhée de 49 jours au plus
Test: Clinical study of termination of early pregnancy: oral RU 486 alone or with an intramuscular sulprostone injection
Format: in vivo, jeunes femmes
Procedure: L'étude a porté sur 33 jeunes femmes en bonne santé présentant une grossesse apparemment normale et une aménorhée de 49 jours au plus.
Le composé RU 486 a été administré oralement à différentes doses : • 1) 25 mg 2 fois par jour pendant 4 jours. • 2) 25 mg 4 fois par jour pendant 4 jours.
Chez 16 patientes une injection intramusculaire de 0,25 mg de la méthylsulfonylamide de la 16-phénoxytétranor PG E2 (sulprostone) a été administrée le matin du dernier jour de traitement par le RU 486. Les sujets ont jeuné au moins une heure avant jusqu'à une heure après la prise du produit.
Les résultats obtenus sont rapportés dans le tableau I ci-après.

[1] = number of patients, RU 486 25 mg orally 2 times per day for 4 days (25 x 2), n=11 group A, n=9 group B
[2] = number of patients, RU 486 25 mg orally 4 times per day for 4 days (25 x 4), n=6 group A, n=7 group B
[3] = number of patients, Total of both RU 486 doses, n=17 group A, n=16 group B
[4] = percent of patients, Total of both RU 486 doses, n=17 group A

CC#C[C@]1(O)CC[C@H]2[C@@H]3CCC4=CC(=O)CCC4=C3[C@@H](c3ccc(N(C)C)cc3)C[C@@]21C [RU 486, 11β-(4-diméthylaminophényl) 170 - hydroxy 17α-(prop-l-ynyl) estra 4,9 - dièn 3 - one]
Avortements complets [1]: 8
Avortements incomplets [1]: 1
Poursuite de la grossesse (number of patients, RU 486 25 mg orally 2 times per day for 4 days (25 x 2), n=11 group A, n=9 group B, group A value includes one extra-uterine pregnancy): 2*
Avortements complets [2]: 5
Avortements incomplets [2]: 0
Poursuite de la grossesse [2]: 1
Avortements complets [3]: 13
Avortements incomplets [3]: 1
Poursuite de la grossesse [3]: 3
Avortements incomplets [4]: 5,9%
Poursuite de la grossesse [4]: 17,6%
Avortements complets (percent of patients, Total of both RU 486 doses, n=17 group A, n=16 group B): 76,5%
